Values after ≈ are worked out from the molar mass of the structure shown.

In experiment [1] the test system is Escherichia coli. Kind of experiment: Antimicrobial activity against Escherichia coli ATCC 25922 at 1 mg/ml incubated for 24 hrs by cup diffusion assay. To be noted: ATCC 25922, 24 h, read-out: DIZ. The experiment is classed as functional.
Experiment [2] concerns Pseudomonas aeruginosa. Put plainly: Antimicrobial activity against Pseudomonas aeruginosa ATCC 27853 at 1 mg/ml incubated for 24 hrs by cup diffusion assay. The experiment is classed as functional. Conditions: ATCC 27853, 24 h, read-out: DIZ.
Experiment [3] concerns Lactococcus lactis. Put plainly: Antimicrobial activity against Streptococcus lactis ATCC 14591 at 1 mg/ml incubated for 24 hrs by cup diffusion assay. Conditions: ATCC 14591, 24 h, read-out: DIZ. The experiment is classed as functional.
Experiment [4] relates to Staphylococcus aureus. Kind of experiment: Antimicrobial activity against Staphylococcus aureus ATCC 25923 at 1 mg/ml incubated for 24 hrs by cup diffusion assay. The format is functional. Conditions: ATCC 25923, 24 h, read-out: DIZ.
Experiment [5] has as its system Candida albicans. Kind of experiment: Antimicrobial activity against Candida albicans ATCC 14154 at 1 mg/ml incubated for 24 hrs by cup diffusion assay. The experiment is classed as functional. Conditions: for zone of inhibition at 1000 µg/mL: ATCC 14154, 24 h, read-out: DIZ.
The subject of experiment [6] is Aspergillus flavus. Kind of experiment: Antimicrobial activity against Aspergillus flavus ATCC 23554 at 1 mg/ml incubated for 24 hrs by cup diffusion assay. The format is functional. To be noted: for zone of inhibition at 1000 µg/mL: ATCC 23554, 24 h, read-out: DIZ.
Experiment [7] concerns Escherichia coli. Kind of experiment: Antimicrobial activity against Escherichia coli ATCC 25922 incubated for 24 hrs by CLSI/NCCLS protocol based method. The experiment is classed as functional. Conditions: ATCC 25922, 24 h.
The test system of experiment [8] is Pseudomonas aeruginosa. Put plainly: Antimicrobial activity against Pseudomonas aeruginosa ATCC 27853 incubated for 24 hrs by CLSI/NCCLS protocol based method. Conditions: ATCC 27853, 24 h. The experiment is classed as functional.
For experiment [9], the system named is Lactococcus lactis. Kind of experiment: Antimicrobial activity against Streptococcus lactis ATCC 14591 incubated for 24 hrs by CLSI/NCCLS protocol based method. The experiment is classed as functional. Conditions: ATCC 14591, 24 h.
In experiment [10] the test system is Staphylococcus aureus. Put plainly: Antimicrobial activity against Staphylococcus aureus ATCC 25923 incubated for 24 hrs by CLSI/NCCLS protocol based method. The experiment is classed as functional. Conditions: ATCC 25923, 24 h.
The test system of experiment [11] is Candida albicans. Kind of experiment: Antimicrobial activity against Candida albicans ATCC 14154 incubated for 24 hrs by CLSI/NCCLS protocol based method. The experiment is classed as functional.
For experiment [12], the system named is Aspergillus flavus. Put plainly: Antimicrobial activity against Aspergillus flavus ATCC 23554 incubated for 24 hrs by CLSI/NCCLS protocol based method. The experiment is classed as functional.
The subject of experiment [13] is MCF7. Put plainly: Growth inhibition of human MCF7 cells incubated for 48 hrs by MTT assay. The experiment is classed as functional, cell-based. To be noted: MCF7, 48 h. On the technique in general: Tetrazolium assays rely on reduction of a dye to a coloured formazan, in cell work by metabolically active cells.
Experiment [14] concerns HT-29. Put plainly: cells. To be noted: Homo sapiens, HT-29, 48 h.
Experiment [15] relates to HepG2. Put plainly: cells. To be noted: Homo sapiens, HepG2, 48 h.

Usually MIC stands for the lowest concentration that inhibits growth of the organism. A low value points to greater potency. One may read the IC50 as the concentration that inhibits the measured activity by half. As for `Cc1csc(NNC(=O)c2[nH]nc(-c3ccc(Cl)cc3)c2N)n1`, the zone of inhibition at 1000 µg/mL in experiment [1] worked out at 16 mm; in experiment [2] it was 12 mm; in experiment [3] it was 22 mm; in experiment [4], 28 mm; in experiment [5] it was 26 mm; in experiment [6] it was 28 mm. Further, the MIC came to 20 µg/mL (≈ 57.3 µM) in experiment [7]; 15 µg/mL (≈ 43 µM) in [8]; 10 µg/mL (≈ 28.7 µM) in experiment [9]; 15 µg/mL (≈ 43 µM) in [10]; 40 µg/mL (≈ 115 µM) in experiment [11] (ATCC 14154, 24 h); 45 µg/mL (≈ 129 µM) in [12] (ATCC 23554, 24 h). The IC50 in experiment [13] was determined as 0.22 µM; in experiment [14] it was 0.42 µM; in experiment [15], 0.56 µM.
For the compound NYSTATIN, the figures for the inhibition zone (IZ) in experiment [5] and in experiment [6] were 25 mm and 30 mm, respectively. Besides, the MIC in experiment [11] was determined as 20 µg/mL; in experiment [12], 25 µg/mL.
With `Nn1c(=S)[nH]c2c(-c3ccc(Cl)cc3)n[nH]c2c1=O`, the zone of inhibition at 1000 µg/mL in experiment [1] was 8 mm; in [2], 10 mm; in experiment [3] it was 15 mm; in [4], 20 mm; in [5], 15 mm; in experiment [6] it was 25 mm. The minimum inhibitory concentration (MIC) in experiment [7] amounted to 20 µg/mL (≈ 68.1 µM); in experiment [8], 15 µg/mL (≈ 51.1 µM); in [9], 20 µg/mL (≈ 68.1 µM); in experiment [10], 20 µg/mL (≈ 68.1 µM); in [11] (ATCC 14154, 24 h) it was 40 µg/mL (≈ 136 µM); in experiment [12] (ATCC 23554, 24 h), 40 µg/mL (≈ 136 µM). Moreover, the IC50 in experiment [13] was determined as 0.84 µM; in experiment [14], 1.33 µM; in experiment [15], 1.55 µM.
Take `Cc1nc2c(-c3ccc(Cl)cc3)n[nH]c2c2nnnn12`: the zone of inhibition at 1000 µg/mL turned out to be 10 mm in [1]; 8 mm in experiment [2]; 20 mm in [3]; 18 mm in experiment [4]; 22 mm in [5]; 26 mm in experiment [6]. For the same compound, the MIC in [7] was 10 µg/mL (≈ 35 µM); in [8], 15 µg/mL (≈ 52.5 µM); in experiment [9], 10 µg/mL (≈ 35 µM); in experiment [10] it was 20 µg/mL (≈ 70 µM); in experiment [11] (ATCC 14154, 24 h), 22 µg/mL (≈ 77 µM). For the same compound, the half-maximal inhibitory concentration (IC50) in experiment [13] amounted to 0.13 µM; in experiment [14] it was 0.29 µM; in experiment [15], 0.36 µM.
As to `Cc1cc(C)n(C(=O)c2[nH]nc(-c3ccc(Cl)cc3)c2N)n1`, the zone of inhibition at 1000 µg/mL in [1] worked out at 22 mm; in experiment [2], 20 mm; in [3], 30 mm; in [4], 32 mm; in experiment [5], 18 mm; in [6] it was 26 mm. Further, the MIC in [7] came to 20 µg/mL (≈ 63.3 µM); in experiment [8] it was 15 µg/mL (≈ 47.5 µM); in [9], 15 µg/mL (≈ 47.5 µM); in experiment [10], 25 µg/mL (≈ 79.2 µM). The results for the IC50 in [13], in [14] and in [15] were 1.45 µM, 1.45 µM and 1.62 µM, respectively.
With `CO/N=C(\C(=O)N[C@@H]1C(=O)N2C(C(=O)O)=C(COC(C)=O)CS[C@H]12)c1csc(N)n1` [CEFOTAXIME], the zone of inhibition at 1000 µg/mL in [1] amounted to 26 mm; in [2], 18 mm; in [3] it was 30 mm; in experiment [4], 31 mm. Moreover, the MIC in [7] was determined as 13 µg/mL (≈ 28.5 µM); in experiment [8], 10 µg/mL (≈ 22 µM); in [9] it was 12 µg/mL (≈ 26.3 µM); in [10], 15 µg/mL (≈ 32.9 µM).
For the compound `Cc1nn(C(=O)c2[nH]nc(-c3ccc(Cl)cc3)c2N)c(C)c1Cl`, the zone of inhibition at 1000 µg/mL in [1] is 15 mm; in [2], 13 mm; in experiment [3], 16 mm; in [4] it was 15 mm; in experiment [5], 16 mm; in experiment [6], 20 mm. In addition, the MIC in experiment [7] came to 15 µg/mL (≈ 42.8 µM); in experiment [8], 10 µg/mL (≈ 28.6 µM); in [9] it was 5 µg/mL (≈ 14.3 µM); in experiment [10] it was 10 µg/mL (≈ 28.6 µM); in experiment [11] (ATCC 14154, 24 h) it was 45 µg/mL (≈ 128 µM); in experiment [12] (ATCC 23554, 24 h) it was 50 µg/mL (≈ 143 µM). In addition, the IC50 in experiment [13] was 0.78 µM; in experiment [14], 1.1 µM; in [15], 0.97 µM.
On to `CC1=NN(C(=O)c2[nH]nc(-c3ccc(Cl)cc3)c2N)C(=O)C1`, for which the zone of inhibition at 1000 µg/mL was determined as 22 mm in experiment [1]; 20 mm in experiment [2]; 26 mm in experiment [3]; 32 mm in experiment [4]; 18 mm in [5]; 35 mm in experiment [6]. The MIC came to 25 µg/mL (≈ 78.7 µM) in experiment [7]; 20 µg/mL (≈ 62.9 µM) in experiment [8]; 20 µg/mL (≈ 62.9 µM) in [9]; 30 µg/mL (≈ 94.4 µM) in experiment [10]; 35 µg/mL (≈ 110 µM) in experiment [11] (ATCC 14154, 24 h); 40 µg/mL (≈ 126 µM) in [12] (ATCC 23554, 24 h). Besides, the figures for the IC50 in experiment [13], in [14] and in experiment [15] were 2.54 µM, 2.78 µM and 2.53 µM, respectively.
Take `Cc1nc(Cl)c2[nH]nc(-c3ccc(Cl)cc3)c2n1`: the zone of inhibition at 1000 µg/mL in experiment [1] came to 12 mm; in experiment [2], 10 mm; in experiment [3] it was 15 mm; in experiment [4] it was 18 mm; in experiment [5], 22 mm; in experiment [6], 25 mm. The minimal inhibitory concentration (MIC) was 50 µg/mL (≈ 179 µM) in experiment [7]; 35 µg/mL (≈ 125 µM) in experiment [8]; 35 µg/mL (≈ 125 µM) in [9]; 40 µg/mL (≈ 143 µM) in [10]; 22 µg/mL (≈ 78.8 µM) in experiment [11] (ATCC 14154, 24 h). Besides, the IC50 in [13] is 1.77 µM; in experiment [14], 1.52 µM; in experiment [15], 1.62 µM.
On to `NC(=S)NNC(=O)c1[nH]nc(-c2ccc(Cl)cc2)c1N`, for which the zone of inhibition at 1000 µg/mL worked out at 22 mm in experiment [1]; 16 mm in experiment [2]; 30 mm in experiment [3]; 34 mm in [4]; 20 mm in experiment [5]; 25 mm in experiment [6]. In addition, the MIC in [7] was determined as 25 µg/mL (≈ 80.4 µM); in [8] it was 40 µg/mL (≈ 129 µM); in experiment [9], 35 µg/mL (≈ 113 µM); in [10], 30 µg/mL (≈ 96.5 µM); in [11] (ATCC 14154, 24 h), 50 µg/mL (≈ 161 µM); in [12] (ATCC 23554, 24 h), 45 µg/mL (≈ 145 µM). For the same compound, the IC50 in experiment [13] amounted to 4.35 µM; in [14], 5.59 µM; in experiment [15] it was 4.06 µM.

These data come from ChEMBL document CHEMBL3792355, “Novel pyrazole derivatives with oxa/thiadiazolyl, pyrazolyl moieties and pyrazolo[4,3-d]-pyrimidine derivatives as potential antimicrobial and anticancer agents” (Bioorg Med Chem Lett, 2016).
